System: 328373-195-R-J1-PDC complex spheroids, viability % test/control
Experiment: Anticancer human tumor 328373-195-R-J1-PDC patient-derived head and neck squamous carcinoma cell line growth inhibition [CLK]
Settings: for IC50: curve of first compound; for viability, T/C: stronger effect = lower value; active = viability on the fitted dose curve at most 10% of control; inactive = the rest
Excerpt: A high-throughput screen of multi-cell type tumor spheroids was designed to identify active combinations of […] and targeted small molecules. Complex spheroids include a stromal component modeled by human endothelial cells (HUVEC) and fibroblasts modeled by human mesenchymal stem cells (MSCs). The concentration ranges selected for each drug and investigational agent were based upon clinically achievable concentrations if the clinical Cmax of the agent was known.
Compounds. The drugs and investigational agents: cirtuvivint (SM08502; NSC835563), CC-671 (NSC850746), vemurafenib (NSC761431), tapotoclax (NSC804041), sotorasib (NSC818433), adagrasib (NSC831453), MRTX-1133 (NSC836407), BAY2416964 (NSC825713), copanlisib (NSC816437), inavolisib (NSC800729), abemaciclib (NSC768073), osimertinib (NSC779217), entinostat (NSC756642), eltanexor (KPT-8602, NSC794443), venetoclax (NSC766270), ceralasertib (NSC777638), bortezomib (NSC756655), olaparib (NSC753686), talazoparib (NSC767125), alisertib (NSC759677), peposertib (NSC802822), gemcitabine (NSC613327), 5-fluorouracil (NSC19893), SN-38 (NSC673596), oxaliplatin (NSC266046), paclitaxel (NSC125973), and doxorubicin (NSC123127), were obtained from the National Cancer Institute (NCI) Developmental Therapeutics Program Chemical Repository. The FDA-approved anticancer drug set is available from the Developmental Therapeutics Program at https://dtp.cancer.gov/organization/dscb/obtaining/available plates.htm. […] The stock solutions were prepared in dimethyl sulfoxide (DMSO, Sigma-Aldrich, St. Louis, MO, cat. D2650), except for the platinum complexes which were prepared in saline (Quality Biological, Gaithersburg, MD, cat. 114-055-101), at 800-fold the tested concentration and stored at -70 degrees C prior to their use. All drugs and investigational agents were tested over a range starting from a high concentration at or near the clinical Cmax and decreasing in half-log increments. If the clinical Cmax for an agent had not been determined, the highest concentration tested was 10 microM.
Cell Culture. All cells were maintained in an incubator at 37 degrees C and 5% CO2 with 95% humidity. The PDC lines were cultured according to standard operating procedures established by the NCI PDMR. Briefly, all PDCs were thawed and cultured in Matrigel-coated flasks prepared with a working solution of 1X Ham's F-12 nutrient mix, without supplementation (Invitrogen, Waltham, MA, cat. 11765054), 100 U/mL penicillin-streptomycin (Invitrogen, cat. 15140122), and 2.5% Matrigel (Corning Inc., Corning, NY, cat. 354248) for the first three passages. The 947758-054-R-J2-PDC line was cultured in 6B/Colon 1A media, which includes advanced DMEM/F-12 (Thermo Fisher Scientific, cat. 12634028), 10 mM HEPES (Thermo Fisher Scientific, cat. 15630080), 1X GlutaMAX supplement (Thermo Fisher Scientific, cat. 35050061), 0.1 mg/mL primocin (InvivoGen, cat. ant-pm-2), 10% defined fetal bovine serum, heat inactivated (HyClone Laboratories Inc., cat. SH30070.03HI), 1.25 mM N-Acetyl-L-cysteine (Sigma-Aldrich, cat. A9165), 10 mM nicotinamide (Sigma-Aldrich, cat. N0636), 1X B-27 supplement (Thermo Fisher Scientific, cat. 17504044), 1X N-2 supplement (Thermo Fisher Scientific, cat. 17502048), and 10 microM Y-27632 dihydrochloride (Tocris Bioscience, cat. 1254). The 876862-298-R-J1-PDC was cultured in 6E media, which includes all 6B/Colon 1A media components plus 50% L-WRN conditioned media (ATCC, cat. CRL-3276), 50 ng/mL recombinant human EGF recombinant protein (hEGF; Thermo Fisher Scientific, cat. PHG0311), 10 ng/mL recombinant human fibroblast growth factor 10 (hGFG-10; PeproTech, cat. 100-26), 1 ng/mL recombinant human fibroblast growth factor 2 (hFGF-2; PeproTech, cat. 100-18B), and 1 µM prostaglandin E2 (PGE2; Tocris, cat. 2296). The 227483-062-R1-J1-PDC line was cultured in Panc media, containing all 6E components except hFGF-2, with the addition of 500 nM SB-431542 (Selleckchem, cat. S1067) and 10 nM gastrin (Tocris, cat. 3006). […]

[1] = second compound 0.0316 µM, first compound 0.0316 µM
[2] = second compound 0.0316 µM, first compound 0.1 µM
[3] = second compound 0.0316 µM, first compound 0.316 µM
[4] = second compound 0.0316 µM, first compound 1 µM
[5] = second compound 0.0316 µM, first compound 3.16 µM
[6] = second compound 0.0316 µM, first compound 10 µM
[7] = second compound 0.1 µM, first compound 0.0316 µM
[8] = second compound 0.1 µM, first compound 0.1 µM
[9] = second compound 0.1 µM, first compound 0.316 µM
[10] = second compound 0.1 µM, first compound 1 µM
[11] = second compound 0.1 µM, first compound 3.16 µM
[12] = second compound 0.1 µM, first compound 10 µM
[13] = second compound 0.316 µM, first compound 0.0316 µM
[14] = second compound 0.316 µM, first compound 0.1 µM
[15] = second compound 0.316 µM, first compound 0.316 µM
[16] = second compound 0.316 µM, first compound 1 µM
[17] = second compound 0.316 µM, first compound 3.16 µM
[18] = second compound 0.316 µM, first compound 10 µM
[19] = second compound 1 µM, first compound 0.0316 µM
[20] = second compound 1 µM, first compound 0.1 µM
[21] = second compound 1 µM, first compound 0.316 µM
[22] = second compound 1 µM, first compound 1 µM
[23] = second compound 1 µM, first compound 3.16 µM
[24] = second compound 1 µM, first compound 10 µM
[25] = second compound 3.16 µM, first compound 0.0316 µM
[26] = second compound 3.16 µM, first compound 0.1 µM
[27] = second compound 3.16 µM, first compound 0.316 µM
[28] = second compound 3.16 µM, first compound 1 µM
[29] = second compound 3.16 µM, first compound 3.16 µM
[30] = second compound 3.16 µM, first compound 10 µM
[31] = second compound 10 µM, first compound 0.0316 µM
[32] = second compound 10 µM, first compound 0.1 µM
[33] = second compound 10 µM, first compound 0.316 µM
[34] = second compound 10 µM, first compound 1 µM
[35] = second compound 10 µM, first compound 3.16 µM
[36] = second compound 10 µM, first compound 10 µM
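Also: spheroids exposed to the agents for 7 days.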

CCCS(=O)(=O)Nc1ccc(F)c(C(=O)c2c[nH]c3ncc(-c4ccc(Cl)cc4)cc23)c1F + CN1CCN(c2cc(C(=O)Nc3cc4cc(-c5cnn(C)c5)ccc4cn3)ccn2)CC1
active: viability, T/C [19] 2.19% | viability, T/C [20] 1.09% | viability, T/C [21] 2.63% | viability, T/C [22] 2.9% | viability, T/C [23] 1.71% | viability, T/C [24] 0.31% | viability, T/C [25] 0.65% | viability, T/C [26] 1.41% | viability, T/C [27] 2.96% | viability, T/C [28] 1.01% | viability, T/C [29] 1.06% | viability, T/C [30] 0.14% | viability, T/C [31] 1.51% | viability, T/C [32] 3.41% | viability, T/C [33] 0.81% | viability, T/C [34] 2.54% | viability, T/C [35] 2.37% | viability, T/C [36] 0.63%
inactive: viability, T/C [1] 102% | viability, T/C [2] 91.4% | viability, T/C [3] 109% | viability, T/C [4] 100% | viability, T/C [5] 101% | viability, T/C [6] 81.6% | viability, T/C [7] 78.8% | viability, T/C [8] 82.2% | viability, T/C [9] 83.7% | viability, T/C [10] 86.6% | viability, T/C [11] 96.5% | viability, T/C [12] 81.7% | viability, T/C [13] 35.8% | viability, T/C [14] 38.5% | viability, T/C [15] 34.8% | viability, T/C [16] 40% | viability, T/C [17] 34.7% | viability, T/C [18] 28.9%
< 31.6 nM: IC50 (second compound 0.316 µM) | IC50 (second compound 1 µM) | IC50 (second compound 3.16 µM) | IC50 (second compound 10 µM)
> 10000 nM: IC50 (second compound 0.0316 µM) | IC50 (second compound 0.1 µM)

COC1C=CCC(C)C(C)S(=O)(=O)NC(=O)c2ccc3c(c2)N(CC2CCC21)CC1(CCCc2cc(Cl)ccc21)CO3 (centres undefined) + CN1CCN(c2cc(C(=O)Nc3cc4cc(-c5cnn(C)c5)ccc4cn3)ccn2)CC1
inactive: viability, T/C [1] 96.7% | viability, T/C [2] 99.5% | viability, T/C [3] 108% | viability, T/C [4] 105% | viability, T/C [5] 81.2% | viability, T/C [6] 48% | viability, T/C [7] 77.3% | viability, T/C [8] 87% | viability, T/C [9] 82.2% | viability, T/C [10] 80.7% | viability, T/C [11] 73.5% | viability, T/C [12] 44% | viability, T/C [13] 36% | viability, T/C [14] 35.3% | viability, T/C [15] 37% | viability, T/C [16] 32.4% | viability, T/C [17] 29.3% | viability, T/C [18] 13.3%
< 31.6 nM: IC50 (second compound 0.316 µM) | IC50 (second compound 1 µM) | IC50 (second compound 3.16 µM) | IC50 (second compound 10 µM)
9330 nM: IC50 (second compound 0.0316 µM)
active: viability, T/C [19] 0.21% | viability, T/C [20] 2.53% | viability, T/C [21] 2.21% | viability, T/C [22] 1.57% | viability, T/C [23] 0.27% | viability, T/C [24] 1.2% | viability, T/C [25] 2.24% | viability, T/C [26] 3.21% | viability, T/C [27] 2.04% | viability, T/C [28] 1.78% | viability, T/C [29] 1.66% | viability, T/C [30] 1.86% | viability, T/C [31] 4.14% | viability, T/C [32] 0.77% | viability, T/C [33] 1.41% | viability, T/C [34] 2.69% | viability, T/C [35] 1.19% | viability, T/C [36] 0.32%
7920 nM: IC50 (second compound 0.1 µM)

Reference: PubChem BioAssay AID2060620 (Molecular Pharmacology Branch, DTP, NCI, 2025)
